{"source": "patent US9492471B2", "about": "“Methods of treating a disease or disorder associated with Bruton'S Tyrosine Kinase” (Celgene Avilomics Research, Inc., priority 2013, dated 2016)", "assay_in_all_cases": "HotSpot kinase profiling", "assay_type_in_all_cases": "biochemical", "key": {"[1]": {"target": "T1, GRK3 (Homo sapiens, UniProt P35626)", "T1 construct": "purchased Reaction Biology Corp", "T1 sequence (P35626 1-688)": "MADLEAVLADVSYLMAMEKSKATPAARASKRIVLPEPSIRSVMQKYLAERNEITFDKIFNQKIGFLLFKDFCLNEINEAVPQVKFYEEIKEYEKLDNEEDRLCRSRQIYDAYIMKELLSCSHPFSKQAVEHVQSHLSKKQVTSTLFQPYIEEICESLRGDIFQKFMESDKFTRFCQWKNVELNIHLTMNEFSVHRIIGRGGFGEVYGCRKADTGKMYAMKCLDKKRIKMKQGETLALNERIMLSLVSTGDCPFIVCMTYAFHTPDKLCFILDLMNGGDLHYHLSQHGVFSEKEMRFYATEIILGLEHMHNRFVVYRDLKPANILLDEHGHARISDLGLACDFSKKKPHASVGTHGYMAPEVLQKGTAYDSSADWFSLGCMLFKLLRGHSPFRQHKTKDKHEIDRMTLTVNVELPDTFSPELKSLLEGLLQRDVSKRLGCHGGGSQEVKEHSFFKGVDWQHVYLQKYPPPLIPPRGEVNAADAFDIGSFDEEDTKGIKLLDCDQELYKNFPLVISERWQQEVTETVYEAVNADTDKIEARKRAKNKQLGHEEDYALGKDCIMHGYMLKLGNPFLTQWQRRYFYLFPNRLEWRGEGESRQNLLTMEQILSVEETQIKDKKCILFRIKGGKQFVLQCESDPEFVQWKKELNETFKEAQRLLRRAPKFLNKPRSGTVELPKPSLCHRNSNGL", "summary_of_the_method": "(§1)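 Percent inhibition, averaged when run more than once and referenced to a DMSO negative control, came from a radioactive filter-binding readout on P81 paper. Reactions of kinase with freshly made substrate and cofactors ran for 2 h at room temperature.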"}, "[2]": {"target": "T2, CDK6/cyclin D3 (Homo sapiens, UniProt Q00534)", "T2 construct": "purchased Reaction Biology Corp", "T2 sequence (Q00534 whole entry)": "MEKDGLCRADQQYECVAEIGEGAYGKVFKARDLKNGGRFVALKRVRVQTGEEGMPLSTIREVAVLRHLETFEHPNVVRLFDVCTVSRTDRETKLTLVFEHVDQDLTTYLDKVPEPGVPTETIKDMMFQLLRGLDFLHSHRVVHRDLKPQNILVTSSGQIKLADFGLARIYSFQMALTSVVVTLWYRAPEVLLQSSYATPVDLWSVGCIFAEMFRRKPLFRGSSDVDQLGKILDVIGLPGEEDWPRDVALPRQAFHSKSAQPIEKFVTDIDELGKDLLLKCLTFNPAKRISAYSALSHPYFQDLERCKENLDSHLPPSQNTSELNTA", "T2 sequence (P30281 whole entry partner)": "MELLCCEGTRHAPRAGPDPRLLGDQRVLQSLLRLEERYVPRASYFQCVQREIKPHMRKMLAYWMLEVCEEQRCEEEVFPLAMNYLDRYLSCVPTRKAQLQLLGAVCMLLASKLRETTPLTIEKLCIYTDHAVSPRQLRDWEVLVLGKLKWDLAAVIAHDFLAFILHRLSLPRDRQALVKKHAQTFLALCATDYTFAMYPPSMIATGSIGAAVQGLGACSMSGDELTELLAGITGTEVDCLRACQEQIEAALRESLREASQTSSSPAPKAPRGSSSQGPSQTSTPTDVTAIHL", "summary_of_the_method": "as §1"}, "[3]": {"target": "T3, PKG1a (Homo sapiens, UniProt Q13976)", "T3 construct": "purchased Reaction Biology Corp", "T3 sequence (Q13976 1-671)": "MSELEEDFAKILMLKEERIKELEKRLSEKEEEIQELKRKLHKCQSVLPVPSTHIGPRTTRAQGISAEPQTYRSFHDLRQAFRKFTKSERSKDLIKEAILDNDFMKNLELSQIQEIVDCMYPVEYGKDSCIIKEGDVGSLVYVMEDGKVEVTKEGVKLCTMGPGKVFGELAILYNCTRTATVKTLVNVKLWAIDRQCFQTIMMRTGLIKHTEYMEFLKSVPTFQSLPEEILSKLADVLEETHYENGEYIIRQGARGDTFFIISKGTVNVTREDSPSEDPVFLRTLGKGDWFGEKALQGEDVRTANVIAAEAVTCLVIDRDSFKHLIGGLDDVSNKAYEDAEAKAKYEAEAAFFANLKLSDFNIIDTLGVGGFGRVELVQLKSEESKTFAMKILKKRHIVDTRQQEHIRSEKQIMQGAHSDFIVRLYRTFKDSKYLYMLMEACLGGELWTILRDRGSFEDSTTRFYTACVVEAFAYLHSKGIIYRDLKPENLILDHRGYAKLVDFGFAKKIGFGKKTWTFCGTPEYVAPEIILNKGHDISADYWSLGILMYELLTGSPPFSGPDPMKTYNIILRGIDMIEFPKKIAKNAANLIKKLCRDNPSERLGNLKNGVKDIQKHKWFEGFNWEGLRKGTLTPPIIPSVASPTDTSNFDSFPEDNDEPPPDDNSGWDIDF", "summary_of_the_method": "as §1"}, "[4]": {"target": "T4, TAOK3/JIK (Homo sapiens, UniProt Q9H2K8)", "T4 construct": "purchased Reaction Biology Corp", "T4 sequence (Q9H2K8 1-898)": "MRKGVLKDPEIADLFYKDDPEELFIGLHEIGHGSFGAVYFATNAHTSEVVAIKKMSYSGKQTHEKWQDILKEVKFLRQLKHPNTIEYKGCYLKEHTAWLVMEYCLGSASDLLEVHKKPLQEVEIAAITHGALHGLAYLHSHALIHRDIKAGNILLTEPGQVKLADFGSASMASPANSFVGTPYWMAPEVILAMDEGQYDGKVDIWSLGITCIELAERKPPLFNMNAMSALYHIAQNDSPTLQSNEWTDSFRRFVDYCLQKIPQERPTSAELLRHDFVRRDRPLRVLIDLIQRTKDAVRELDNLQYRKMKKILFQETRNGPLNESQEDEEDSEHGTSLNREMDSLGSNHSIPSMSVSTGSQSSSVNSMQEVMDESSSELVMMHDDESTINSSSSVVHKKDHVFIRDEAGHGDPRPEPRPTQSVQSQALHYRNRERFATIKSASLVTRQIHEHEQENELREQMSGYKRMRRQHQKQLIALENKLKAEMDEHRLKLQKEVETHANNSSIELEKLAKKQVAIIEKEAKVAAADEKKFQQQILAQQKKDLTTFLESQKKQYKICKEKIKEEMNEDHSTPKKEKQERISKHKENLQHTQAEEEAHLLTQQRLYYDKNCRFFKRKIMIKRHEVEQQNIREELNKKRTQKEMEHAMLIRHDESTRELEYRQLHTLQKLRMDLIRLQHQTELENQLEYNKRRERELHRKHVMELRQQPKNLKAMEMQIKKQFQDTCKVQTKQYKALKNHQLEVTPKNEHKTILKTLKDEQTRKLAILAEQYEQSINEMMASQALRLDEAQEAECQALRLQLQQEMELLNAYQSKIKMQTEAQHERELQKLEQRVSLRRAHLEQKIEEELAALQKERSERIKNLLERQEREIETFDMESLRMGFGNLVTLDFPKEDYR", "summary_of_the_method": "as §1"}, "[5]": {"details": "read-out: % Enzyme Activity (relative to DMSO controls) Run 1"}, "[6]": {"details": "read-out: % Enzyme Activity (relative to DMSO controls) Run 2"}}, "note": "Where two headings read alike, the source gives them in different places.", "data": [{"smiles": "C=CC(=O)Nc1cccc(Nc2nc(Nc3ccc(OCCOC)c(F)c3)ncc2F)c1", "note": "[Compound 2]", "values": [{"measurement": "inhibition at 3 µM", "setting": "[1]", "value": -0.2, "unit": "%"}, {"measurement": "remaining activity at 3 µM", "setting": "[1]; [5]", "value": 99.5, "unit": "%"}, {"measurement": "remaining activity at 3 µM", "setting": "[1]; [6]", "value": 101, "unit": "%"}, {"measurement": "inhibition at 3 µM", "setting": "[2]", "value": 0.16, "unit": "%"}, {"measurement": "remaining activity at 3 µM", "setting": "[2]; [5]", "value": 99.5, "unit": "%"}, {"measurement": "remaining activity at 3 µM", "setting": "[2]; [6]", "value": 100, "unit": "%"}, {"measurement": "inhibition at 3 µM", "setting": "[3]", "value": 8.73, "unit": "%"}, {"measurement": "remaining activity at 3 µM", "setting": "[3]; [5]", "value": 88, "unit": "%"}, {"measurement": "remaining activity at 3 µM", "setting": "[3]; [6]", "value": 94.5, "unit": "%"}, {"measurement": "inhibition at 3 µM", "setting": "[4]", "value": 7.74, "unit": "%"}, {"measurement": "remaining activity at 3 µM", "setting": "[4]; [5]", "value": 94.5, "unit": "%"}, {"measurement": "remaining activity at 3 µM", "setting": "[4]; [6]", "value": 90, "unit": "%"}]}]}
